Assay [1] has as its system Human gammaherpesvirus 8. Description: Inhibition of Kaposi's sarcoma-associated herpesvirus His-tagged oligomerization-deficient LANA DBD mutant (1008 to 1146 residues) assessed as disruption of LANA-DNA interaction at 250 uM preincubated with LBS1 representing 5'-Dy682-labeled double stranded DNA probe as substrate for 30 mins followed by compound addition and measured after 30 mins by Electrophoretic mobility shift assay. On the technique in general: A gel shift assay detects complexes by their altered migration in electrophoresis.

Assay [2] relates to Human gammaherpesvirus 8. Description: Antiviral activity against Kaposi's sarcoma-associated herpesvirus infected in human HEK293 cells transfected with KSHV pGTR4:73 with four terminal repeats and LANA expression cassette containing plasmid assessed as inhibition of LANA-mediated replication of viral latent replication origin TR sequence at 15.625 to 62.5 uM incubated for 3 days by Southern blot analysis. Type of assay: functional, organism-based. As to conditions: dose 15.625-62.5 µM, time 3.0 day.

On to `Cc1cc(-c2cccc(Cl)c2)ncc1-n1cc(-c2ccc(C(=O)O)cc2)nn1`, for which, in the assay with Human gammaherpesvirus 8 [1], the inhibition (usually the drop in the measured response relative to a control, in per cent) is less than 10%.
Turning to `Cc1cc(-c2ccccc2)ncc1-n1cc(-c2ccc(C(=O)O)cc2)nn1`, in the assay on Human gammaherpesvirus 8 [1], the inhibition was less than 10%.
For `COc1cccc(-c2cc(C)c(-n3cc(-c4ccc(C(=O)O)cc4)nn3)cn2)c1`, in the assay with Human gammaherpesvirus 8 [1], the inhibition is less than 10%.
For `COc1ccc(-c2cc(C)c(-n3cc(-c4ccc(C(=O)O)cc4)nn3)cn2)c(Cl)c1`, in the assay with Human gammaherpesvirus 8 [2], the Activity result is “Dose-Dependent Effect”.
`COc1ccc(-c2cc(C)c(-n3cc(-c4ccc(C(=O)O)cc4)nn3)cn2)cn1`: the inhibition in the assay on Human gammaherpesvirus 8 [1] is less than 10%.
For the molecule `Cc1cc(-c2cccc(C(=O)O)c2)ncc1-n1cc(-c2ccc(C(=O)O)cc2)nn1`, the inhibition in the assay with Human gammaherpesvirus 8 [1] is less than 10%.

Values taken from ChEMBL document CHEMBL5346982, “Disrupting Kaposi's Sarcoma-Associated Herpesvirus (KSHV) Latent Replication with a Small Molecule Inhibitor” (J Med Chem, 2023).
